Reference: EP0880540B1, “17-BETA-CYCLOPROPYL(AMINO/OXY) 4-AZA STEROIDS AS ACTIVE INHIBITORS OF TESTOSTERONE 5-ALPHA-REDUCTASE AND C17-20-LYASE” (Aventis Pharmaceuticals Inc., priority 1996, dated 1997)

Target: T1, Rat testicular C17,20 lyase (Rattus norvegicus, UniProt P11715)
T1 construct: testes were excised, capsules were removed, and the tissue was weighed; from tissue; host or cells: testes of male Copenhagen rats (Harlan Laboratories), 10,000 x G supernatant of homogenate
T1 sequence (P11715 1-507): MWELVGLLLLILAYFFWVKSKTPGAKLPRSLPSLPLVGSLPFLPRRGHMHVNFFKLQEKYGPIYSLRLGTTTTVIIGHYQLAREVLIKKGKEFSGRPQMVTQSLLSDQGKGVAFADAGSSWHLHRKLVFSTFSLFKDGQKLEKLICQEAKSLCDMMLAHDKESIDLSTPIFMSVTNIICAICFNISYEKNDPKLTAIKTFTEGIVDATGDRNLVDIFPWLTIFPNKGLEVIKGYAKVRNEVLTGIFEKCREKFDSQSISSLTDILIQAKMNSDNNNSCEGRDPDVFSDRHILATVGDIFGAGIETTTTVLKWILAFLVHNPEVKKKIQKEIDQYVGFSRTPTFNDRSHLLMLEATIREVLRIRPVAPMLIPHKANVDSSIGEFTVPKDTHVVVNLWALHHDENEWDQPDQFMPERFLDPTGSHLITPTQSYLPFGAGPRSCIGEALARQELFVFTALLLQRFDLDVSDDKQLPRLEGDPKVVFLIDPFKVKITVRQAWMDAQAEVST
Experiment: Ex vivo inhibition of C17,20 lyase in rat testes after dosing
Parameters: species or system Male Copenhagen rats
Method: Ex vivo inhibition of C17,20 lyase: MDL 103,432 was tested for ex vivo inhibition of rat and nude mouse testes lyase. Male Copenhagen rats and male athymic nude mice obtained from Harlan Laboratories, Indianapolis, IN, were divided into groups of 5 to 6 based on weight. Average weight was 100-140 g each for rats and 18-35 g each for the mice. Prior to oral dosing, animals were fasted overnight. Test compound was prepared by micronization in a lecithin vehicle using a glass Teflon® pestle-type homogenizer. The compound was brought to volume using lecithin so as to administer 0.5 mL per 100 g animal. Rats and nude mice were given vehicle only (controls) or vehicle plus test compounds peros. Rats were also given the compound in lecithin or lecithin alone subcutaneously. Each group consisted of 5-6 animals. At a specified time after dosing, the animals were anesthetized with CO2 gas, sacrificed by cervical dislocation, testes were excised, capsules were removed, and the tissue was weighed. Two volumes (w/v) of 0.05 M potassium phosphate buffer, pH 7.2, was added to the rat testes tissue on ice, and 11 volumes (w/v) of the same buffer were added to the mouse testes. Tissue was then homogenized using 20 strokes with a Dounce homogenizer equipped with a tight pestle. Homogenized tissue was centrifuged at 800 x G then at 10,000 x G for 15 minutes each. Supernatant was decanted, reserved, and kept chilled on ice. Assays for lyase activity contained the same buffer and NADPH regenerating system described above and also contained […] of 10,000 x G supernatant which was diluted 3-fold resulting in a 5-fold dilution overall in the final assay volume. Substrate, 17α-hydroxyprogesterone plus 1,3-[^3H]-17α-hydroxyprogesterone (40-57 mCi/mmole; 0.18 µCi per assay) to yield a final concentration of 0.1 µM, (=Km) was added to the remaining assay components after a 5 minute equilibration a 20°C of the latter. The total assay volume was 200 µL. Activity was assayed for 20 seconds at 20°C. Assays were terminated, extracted and analyzed as described above except that carrier steroids were 17α-hydroxyprogesterone, androst-4-ene-dione, and testosterone. The organic phase containing the steroids was evaporated using nitrogen gas, the residues dissolved in 18% tetrahydrofuran (v/v) in hexane, and the steroid substrate, 17α-hydroxyprogesterone, and products (AED, TEST) were separated by HPLC on a Si60 (5 µm) column (250 x 4 mm) using 20% (v/v) tetrahydrofuran (THF) in hexane for 20 minutes then ramping to 60% THF (v/v) for 11 minutes. Activity of test compound was expressed as percent inhibition relative to the control and was the mean of each group of treated animals.

With `CC12CCC3C(CC[C@H]4NC(=O)CCC34C)C1CC[C@@H]2OC1CC1` (stereo partly drawn) [MDL 103,432, 17β-Cyclopropyloxy-4-aza-5α-androstan-3-one] as the compound, how does the inhibition at 50 mg/kg (po, 50 mg/kg p.o., 4 hr after dosing) read?
The inhibition at 50 mg/kg was 66.4%.

And the inhibition at 50 mg/kg (po, 50 mg/kg p.o., 24 hr after dosing)?
The inhibition at 50 mg/kg was 52.7%.

And the inhibition at 50 mg/kg (sc, 50 mg/kg s.c., 4 hr after dosing)?
Its inhibition at 50 mg/kg is 32.9%.

What about the inhibition at 50 mg/kg (sc, 50 mg/kg s.c., 24 hr after dosing) of the same compound?
Its inhibition at 50 mg/kg is 40.7%.
